Laboratory results: patent US4826994A, “Production of substituted 1,3,4,9-tetrahydropyrano(3,4-B)indole-1-acetic acids” (American Home Products Corporation, priority 1988, dated 1989)

What was measured:
[1] = Randall Selitto Test in the Rat (pain threshold in inflamed paw); format: in vivo, Male Sprague Dawley rats; settings: Rattus norvegicus, po, rats, 1 hour after dosing; value in parentheses; read-out: Randall Selitto Test in the Rat, ED50 (dose which causes analgesia in 50% of the animals)
Text: An additional test used to determine the utility of the compounds of the present invention is designated: Randall Selitto Test in the Rat
The objective of this test is to assess the potency of peripheral and central acting drugs in inhibiting the reaction of rats to painful stimulation applied to an inflamed paw.
Male Sprague Dawley rats (180-200 g) are used. The animals are fasted overnight prior to drug administration.
(§1) Drug Preparation and Administration:
Freund's Complete Adjuvant (FCA) is prepared by suspending 5 mg killed and dried mycobacterium butyricum (Difco) in 1 mL mineral oil. The test compounds are dissolved or suspended in 0.5% Tween 80 in distilled water according to their solubility. They are administered by gastric gavage in a volume of 0.5 mL/100 g body weight to groups of 10 animals.
Ten rats are used per group. The method is essentially that described by Randall and Selitto, Arch. Int. Pharmacodyn. 111, 409 (1957) and the apparatus which is used to apply pressure to the paw (Analgesi-meter for the rat paw, Ugo Basile, Comeria, Italy) is a modification of that described by Gilfoil et al, J. Pharmacol. 142, 1 (1963). The instrument is basically a device which exerts a force that increases at a constant rate. The force is continuously monitored by a pointer moving along a linear scale and is measured in grams. The inflammatory reaction is induced in the left hind paw of rats of injecting 0.1 mL of Freund's adjuvant intradermally. The test compound or vehicle is administered 24 hours after the adjuvant. The pain threshold (vocalization) is determined 1 hour later in the inflamed paw of the treated and control groups.
Presentation of Results and Criteria for Activity:
Each animal which has a reading 1.5 times greater than the mean reading of the control-group will be considered as responsive (having an analgesic effect) to treatment. The number of animals showing an analgesic effect is then determined in each group.
The ED50 (dose which causes analgesia in 50% of the animals) using at least 3 doses is then determined, by the method described in Litchfield and Wilcoxon, J. Pharmacol. Exp. Ther., 96, 99-113 (1949).

[2] = Drug Effects on Phenylbenzoquinone-induced Writhing in Mice; format: in vivo, Male Swiss albino mice; settings: for inhibition in vivo at 25 mg/kg / ED50: Mus musculus, po; for inhibition in vivo at 25 mg/kg: read-out: Phenylquinone Writhing in Mice, percent inhibition; for ED50: value in parentheses, read-out: Phenylquinone Writhing in Mice, ED50
Experimental: A further test used to determine the utility of the compounds of the present invention is designated: Drug Effects on Phenylbenzoquinone-induced Writhing in Mice
The objective of this test is to determine the ability of test drugs to inhibit the nociceptive (pain) response of mice injected with a chemical irritant. This test is a primary screen for both peripheral and centrally acting analgesic drugs.
Male Swiss albino mice (15-25 g). The animals are fasted for 18 hours prior to use but have free access to water.
as §1
Drugs are dissolved or suspended according to their solubility in 0.5% Tween 80 in distilled water. They are administered by gastric gavage in a volume of 5 mL/kg. For primary screening all drugs are administered at the arbitrary dosage of 25 mg/kg, p.o. to a group of 10 mice.
A modification of the method of Siegmund et al, Proc. Soc. Exp. Biol. Med., 95, 729-731 (1957) is used. Groups of 5 mice are dosed with the test compound or vehicle control. Sixty minutes later the animals are injected i.p. with 0.3 mL/20 g body weight of a 0.02% solution of phenylbenzoquinone (PBQ; 2-phenyl-1,4-benzoquinone) and placed in individual observation boxes. The number of writhing or abdominal squirming movements made by each mouse during the following 15 min. period is counted. The experiment is repeated with another group of 5 mice and the mean number of writhes per mouse for a group of 10 mice is calculated.
Drug treated and vehicle-treated control groups are compared and the percentage protection conferred by the drug is calculated: [formula] where c=mean number of writhes in the control group where t=mean number of writhes in the test drug group

[3] = Preventative Adjuvant Edema (acute anti-inflammatory effect in rats); format: in vivo, Male Sprague Dawley rats; settings: for Preventative Adjuvant Edema, percent inhibition / inhibition in vivo at 25 mg/kg: 25 mg/kg, p.o.; for inhibition in vivo at 25 mg/kg: read-out: Preventative Adjuvant Edema, percent inhibition
Experimental: This test is a primary screen for anti-inflammatory drugs.
Male Sprague Dawley rats (180-200 g) are used. The animals have free access to water but food is withdrawn 18 hours before testing.
Drug Preparations and Administration:
Freund's complete adjuvant is prepared by suspending 5 mg of killed and dried Mycobacterium butyricum (Difco) in 1 mL mineral oil. The test compounds are dissolved, of suspended in 0.5% Tween 80 in distilled water according to their solubility. For primary screening all drugs are administered by gastric lavage at the arbitrary dosage of 25 mg/kg, p.o. in a volume of 0.5 mL/100 g body weight to groups of 10 animals.
The method is essentially that described by Wax et al, J. Pharmacol. Exp. Ther., 192, 166-171 (1975). Groups of rats are injected intradermally in the left hind paw with 0.1 mL of Freund's complete adjuvant. The test compound or vehicle is administered immediately before the adjuvant, 24 hours and 48 hours after the adjuvant (days 0, 1 and 2). The injected hind paw volume is measured before the injection of adjuvant and 24 hrs. after the last drug administration (day 3) by means of a plethysmometer (Buxco Electronics Inc.). The difference between the hind paw volume on day 0 and day 3 represents the edema volume. Etodolac (25 mg/kg, p.o.) is included as a positive control.
The mean edema volume (expressed as mL±SEM) is calculated for each group and the percentage protection conferred by the drug is calculated: [formula] where c is the mean edema volume for the vehicle-treated (0.5% Tween 80 in distilled water) controls and t is the mean edema volume for the drug treated group.

SMILES | inhibition in vivo at 25 mg/kg ([2]; 25 mg/kg, p.o.) | inhibition in vivo at 25 mg/kg ([3]; Rattus norvegicus, po, 72 h) | further results
CCc1cccc2c3c([nH]c12)C(CC)(CC(=O)O)OCC3Cc1ccccc1 (single isomer, unassigned) [Example 4, 1,8-Diethyl-1,3,4,9-tetrahydro-4-(phenylmethyl)-pyrano[3,4-b]indole-1-acetic Acid] | 86% |  | ED50 [1]: 0.5 mg/kg; Preventative Adjuvant Edema, percent inhibition [3]: 15%
C=CCC1COC(CC)(CC(=O)O)c2[nH]c3c(CC)cccc3c21 (single isomer, unassigned) [Example 11, 1,8-diethyl-1,3,4,9-tetrahydro-4-(2-propenyl)-pyrano[3,4-b]indole-1-acetic acid] | 11% | 55% | 
C=CCC1COC(CC)(CC(=O)O)c2[nH]c3c(CCC)cccc3c21 (single isomer, unassigned) [Example 13, 1-ethyl-1,3,4,9-tetrahydro-4-(2-propenyl)-8-propyl-pyrano[3,4-b]indole-1-acetic acid] | 2% | 36% | 
C=CCC1COC(CC)(CC(=O)O)c2[nH]c3ccccc3c21 (single isomer, unassigned) [Example 14] | 21% | 46% | 
C=CCC1COC(CC)(CC(=O)O)c2[nH]c3ccccc3c21 (single isomer, unassigned) [Example 15] |  |  | Phenylquinone Writhing in Mice, percent inhibition ([2]; 25 mg/kg, p.o.): 25%; Preventative Adjuvant Edema, percent inhibition [3]: 30%
C=CCC1COC(CC)(CC(=O)O)c2[nH]c3c(C)c(Cl)ccc3c21 (single isomer, unassigned) [Example 17, 7-chloro-1-ethyl-1,3,4,9-tetrahydro-8-methyl-4-(2-propenyl)-pyrano[3,4-b]indole-1-acetic acid] | 11% | 44% | 
CCC1(CC(=O)O)OCC(Cc2ccccc2)c2c1[nH]c1c(C)c(Cl)ccc21 (single isomer, unassigned) [Example 20, 7-chloro-1-ethyl-1,3,4,9-tetrahydro-8-methyl-4-(phenylmethyl)-pyrano[3,4-b]indole-1-acetic acid] | 11% |  | Preventative Adjuvant Edema, percent inhibition [3]: 34%
CCC1(CC(=O)O)OCC(Cc2ccccc2)c2c1[nH]c1c(C)cccc21 (single isomer, unassigned) [Example 21, 1-ethyl-1,3,4,9-tetrahydro-8-methyl-4-(phenylmethyl)-pyrano[3,4-b]indole-1-acetic acid] | 11% | 40% | 
CCC1(CC(=O)O)OCC(Cc2ccccc2)c2c1[nH]c1c(Cl)ccc(C)c21 (single isomer, unassigned) [Example 23, 8-chloro-1-ethyl-1,3,4,9-tetrahydro-5-methyl-4-(phenylmethyl)-pyrano[3,4-b]indole-1-acetic acid] |  |  | ED50 [2]: 1.4 mg/kg; Preventative Adjuvant Edema, percent inhibition [3]: 0%
CCC1(CC(=O)O)OCC(Cc2ccccc2)c2c1[nH]c1c(Cl)ccc(C)c21 (single isomer, unassigned) [Example 24, 8-chloro-1-ethyl-1,3,4,9-tetrahydro-5-methyl-4-(phenylmethyl)-pyrano[3,4-b]indole-1-acetic acid] | 0% |  | Preventative Adjuvant Edema, percent inhibition [3]: 2%
CCC1(CC(=O)O)OCC(Cc2ccccc2)c2c1[nH]c1ccc(Br)cc21 (single isomer, unassigned) [Example 25, 6-bromo-1-ethyl-1,3,4,9-tetrahydro-4-(phenylmethyl)-pyrano[3,4-b]indole-1-acetic acid] |  |  | ED50 [2]: 3.1 mg/kg
CCC1(CC(=O)O)OCC(Cc2ccccc2)c2c1[nH]c1ccc(Br)cc21 (single isomer, unassigned) [Example 26, 6-bromo-1-ethyl-1,3,4,9-tetrahydro-4-(phenylmethyl)-pyrano[3,4-b]indole-1-acetic acid] | 10% |  | 
C=CCC1COC(CC)(CC(=O)O)c2[nH]c3ccc(F)cc3c21 (single isomer, unassigned) [Example 27] | 24% |  | 
CCC1(CC(=O)O)OCC(Cc2ccccc2)c2c1[nH]c1c(C)ccc(Cl)c21 (single isomer, unassigned) [Example 29, 5-chloro-1-ethyl-1,3,4,9-tetrahydro-8-methyl-4-(phenylmethyl)-pyrano[3,4-b]indole-1-acetic acid] |  |  | ED50 [2]: 3.2 mg/kg
CCC1(CC(=O)O)OCC(Cc2ccccc2)c2c1[nH]c1cc(Cl)ccc21 (single isomer, unassigned) [Example 34, 7-chloro-1-ethyl-1,3,4,9-tetrahydro-4-(phenylmethyl)-pyrano[3,4-b]indole-1-acetic acid] |  |  | ED50 [2]: 1.4 mg/kg
CCC1(CC(=O)O)OCC(Cc2ccc(Cl)cc2)c2c1[nH]c1ccccc21 (single isomer, unassigned) [Example 40] | 47% | 60% | 
CCC1(CC(=O)O)OCC(Cc2ccc(OC)cc2)c2c1[nH]c1ccccc21 (single isomer, unassigned) [Example 41] | 30% |  | 
C=CCC1COC(CC)(CC(=O)O)c2[nH]c3c(C)c(F)ccc3c21 (single isomer, unassigned; isomer a) [Example 6, 1-Ethyl-7-fluoro-1,3,4,9-tetrahydro-8-methyl-4-(2-propenyl)pyrano[3,4-b]indole-1-acetic Acid (Isomer A)] |  |  | ED50 [2]: 18 mg/kg; ED50 ([3]; Rattus norvegicus, po, 72 h, value in parentheses): 3.2 mg/kg
CCC1(CC(=O)O)OCC(Cc2ccccc2)c2c1[nH]c1ccccc21 (single isomer, unassigned; isomer b) [Example 3, 1-Ethyl-1,3,4,9-tetrahydro-4-(phenylmethyl)-pyrano[3,4-b]indole-1-acetic Acid (Isomer B)] | 19% |  | 
CCc1cccc2c3c([nH]c12)C(CC)(CC(=O)O)OCC3Cc1ccccc1 (single isomer, unassigned; isomer b) [Example 5, 1,8-Diethyl-1,3,4,9-tetrahydro-4-(phenylmethyl-pyrano[3,4-b]indole-1-aceticAcid (Isomer B)] |  |  | Preventative Adjuvant Edema, percent inhibition [3]: 4%
C=CCC1COC(CC)(CC(=O)O)c2[nH]c3c(C)c(F)ccc3c21 (single isomer, unassigned; isomer b) [Example 7, 1-Ethyl-7-fluoro-1,3,4,9-tetrahydro-8-methyl-4-(2-propenyl)pyrano[3,4-b]indole-1-acetic Acid (Isomer B)] | 15% | 37% | 
